# Like-named read-outs stand apart in the source and are kept apart here.
# Tests used:
# [1] = test system: OVCAR-5; assay: NCI SRB cytotoxicity, ovarian OVCAR-5; assay type: cell-based; conditions: Homo sapiens, 48 h exposure
# Description: (§1) The pyrazolochalcones (7e, 8e, 10e, 11e, 12e, 13e and 8f) have been tested against fifty nine human tumor cell lines derived from nine cancer types (leukemia, non-small cell lung cancer, colon cancer, CNS cancer, melanoma, ovarian cancer, renal cancer, prostate cancer and breast cancer) as per the NCI protocol. For each compound, dose response curves for individual cell lines have been measured at a minimum of five concentrations at 10 fold dilutions. A protocol of 48 h continuous drug exposure has been used, and a sulforhodamine B (SRB) protein assay has been used to estimate cell viability or growth. The concentration for 50% cell growth inhibition (GI50), 50% cell death (LC50, 50% growth) and total cell growth inhibition (TGI, 0% growth) values were tabulated (Table-1). DMSO was used as control to calculate the values of GI50, LC50 and TGI. The compounds 7e, 8e, 10e, 11e, 12e, 13e and 8f has been evaluated for their in vitro cytotoxicity in […] cell lines from nine human cancer types of leukemia (K-562, SR), non-small cell lung (Hop-62, NCI-H226, NCI-H522), colon (HCT-116, HCT-15, HCC-2998), CNS (SF-539), melanoma (SK-MEL-5, UACC-62, M14), ovarian (IGROV1), renal (A498), prostate (PC3) and breast (BT-549, MDA-MB-435, HS578T) origin. The results are expressed as percent of cell growth determined relative to that of untreated control cells (Table 2).
# [2] = test system: TK-10; assay: NCI SRB cytotoxicity, renal TK-10; assay type: cell-based; conditions: Homo sapiens, 48 h exposure
# Description: as §1
# [3] = test system: NCI-H460; assay: NCI SRB cytotoxicity, non-small cell lung NCI-H460; assay type: cell-based; conditions: Homo sapiens, 48 h exposure
# Description: as §1
# [4] = test system: HOP-62; assay: NCI SRB cytotoxicity, non-small cell lung HOP-62; assay type: cell-based; conditions: Homo sapiens, 48 h exposure
# Description: as §1
# [5] = test system: UACC-257; assay: NCI SRB cytotoxicity, melanoma UACC-257; assay type: cell-based; conditions: Homo sapiens, 48 h exposure
# Description: as §1
# [6] = test system: HCT-15; assay: NCI SRB cytotoxicity, colon HCT-15; assay type: cell-based; conditions: Homo sapiens, 48 h exposure
# Description: as §1
# [7] = test system: Leukemia; assay: NCI SRB cytotoxicity, leukemia panel average; assay type: cell-based, human; conditions: average of cell lines; for CC50: read-out: Log10 LC50 (concentration in mol/L causing 50% cell death) (converted)
# Description: as §1
# (§2) Each cancer type represents the average of six to eight different cancer cell lines.
# [8] = test system: MDA-MB-231/ATCC; assay: NCI SRB cytotoxicity, breast MDA-MB-231/ATCC; assay type: cell-based; conditions: Homo sapiens, 48 h exposure
# Description: as §1
# [9] = test system: CAKI-1; assay: NCI SRB cytotoxicity, renal CAKI-1; assay type: cell-based; conditions: Homo sapiens, 48 h exposure
# Description: as §1
# [10] = test system: SW-620; assay: NCI SRB cytotoxicity, colon SW-620; assay type: cell-based; conditions: Homo sapiens, 48 h exposure
# Description: as §1
# [11] = test system: Ovarian; assay: NCI SRB cytotoxicity, ovarian panel average; assay type: cell-based, human; conditions: average of cell lines; for CC50: read-out: Log10 LC50 (concentration in mol/L causing 50% cell death) (converted)
# Description: as §1, §2
# [12] = test system: DU-145; assay: NCI SRB cytotoxicity, prostate DU-145; assay type: cell-based; conditions: Homo sapiens, 48 h exposure
# Description: as §1
# [13] = test system: KM12; assay: NCI SRB cytotoxicity, colon KM12; assay type: cell-based; conditions: Homo sapiens, 48 h exposure
# Description: as §1
# [14] = test system: A498; assay: NCI SRB cytotoxicity, renal A498; assay type: cell-based; conditions: Homo sapiens, 48 h exposure
# Description: as §1
# [15] = test system: A549/ATCC; assay: NCI SRB cytotoxicity, non-small cell lung A549/ATCC; assay type: cell-based; conditions: Homo sapiens, 48 h exposure
# Description: as §1
# [16] = test system: NCI-H23; assay: NCI SRB cytotoxicity, non-small cell lung NCI-H23; assay type: cell-based; conditions: Homo sapiens, 48 h exposure
# Description: as §1
# [17] = test system: SF-268; assay: NCI SRB cytotoxicity, CNS SF-268; assay type: cell-based; conditions: Homo sapiens, 48 h exposure
# Description: as §1
# [18] = test system: OVCAR-4; assay: NCI SRB cytotoxicity, ovarian OVCAR-4; assay type: cell-based; conditions: Homo sapiens, 48 h exposure
# Description: as §1
# [19] = test system: HCC-2998; assay: NCI SRB cytotoxicity, colon HCC-2998; assay type: cell-based; conditions: Homo sapiens, 48 h exposure
# Description: as §1
# [20] = test system: UACC-62; assay: NCI SRB cytotoxicity, melanoma UACC-62; assay type: cell-based; conditions: Homo sapiens, 48 h exposure
# Description: as §1
# [21] = test system: SR; assay: NCI SRB cytotoxicity, leukemia SR; assay type: cell-based; conditions: Homo sapiens, 48 h exposure
# Description: as §1
# [22] = test system: RPMI-8226; assay: NCI SRB cytotoxicity, leukemia RPMI-8226; assay type: cell-based; conditions: Homo sapiens, 48 h exposure
# Description: as §1
# [23] = test system: HS 578T; assay: NCI SRB cytotoxicity, breast HS 578T; assay type: cell-based; conditions: Homo sapiens, 48 h exposure
# Description: as §1
# [24] = test system: NCI-H226; assay: NCI SRB cytotoxicity, non-small cell lung NCI-H226; assay type: cell-based; conditions: Homo sapiens, 48 h exposure
# Description: as §1
# [25] = test system: CNS; assay: NCI SRB cytotoxicity, CNS panel average; assay type: cell-based, human; conditions: average of cell lines; for LC50: read-out: Log10 LC50 (concentration in mol/L causing 50% cell death) (converted)
# Description: as §1, §2
# [26] = test system: human tumor cell lines; assay: NCI SRB cytotoxicity, all fifty nine human tumor cell lines; assay type: cell-based; parameters: Log10 TGI mean graph midpoint (MG_MID): unit not given here; conditions: for GI50: Homo sapiens; for cytotoxicity: against cancer cell lines, in words; for LC50: read-out: Log10 LC50 mean graph midpoint (MG_MID) (converted)
# Description: as §1
# The mean graph midpoint values of Log10 TGI and Log10 LC50 as well as Log10 GI50 for compounds 7e, 8e, 10e, 11e, 12e, 13e and 8f is listed in Table-3. […] The mean graph mid points of Log10 TGI and Log10, LC50 have shown similar pattern to the log10 GI50 mean graph mid points.
# [27] = test system: SN12C; assay: NCI SRB cytotoxicity, renal SN12C; assay type: cell-based; conditions: Homo sapiens, 48 h exposure
# Description: as §1
# [28] = test system: MDA-MB-435; assay: NCI SRB cytotoxicity, breast panel MDA-MB-435; assay type: cell-based; conditions: Homo sapiens, 48 h exposure
# Description: as §1
# [29] = test system: SF-295; assay: NCI SRB cytotoxicity, CNS SF-295; assay type: cell-based; conditions: Homo sapiens, 48 h exposure
# Description: as §1
# [30] = test system: HOP92; assay: NCI SRB cytotoxicity, non-small cell lung HOP92; assay type: cell-based; conditions: Homo sapiens, HOP-92, 48 h exposure
# Description: as §1
# [31] = test system: U251; assay: NCI SRB cytotoxicity, CNS U251; assay type: cell-based; conditions: Homo sapiens, U-251, 48 h exposure
# Description: as §1
# [32] = Homo sapiens, read-out: Log10 GI50 (concentration in mol/L causing 50% growth inhibition) (converted)
# [33] = across fifty nine cell lines in nine cell panels, read-out: GI50 value range
# [34] = against human tumor cell lines, read-out: Log10 GI50 mean graph midpoint (MG_MID) (converted)
compound,measurement,setting,value
"COc1ccc(C(=O)/C=C/c2cc(-c3cc(OC)c(OC)c(OC)c3)n[nH]2)cc1OC [8e, (E)-1-(3,4-dimethoxyphenyl)-3-(3-(3,4,5-trimethoxyphenyl)-1H-pyrazol-5-yl)prop-2-en-1-one]",GI50,[1],1.59 µM
same,GI50,[2],1.33 µM
same,GI50,[3],1.41 µM
same,GI50,[4],1.44 µM
same,GI50,[5],1.49 µM
same,GI50,[6],1.27 µM
same,GI50,[7]; [32],0.794 µM
same,CC50,[7]; Homo sapiens,97.7 µM
same,Log10 TGI (concentration in mol/L causing total growth inhibition (0% growth)),[7],−5.19 mol/L
same,GI50,[8],1.48 µM
same,GI50,[9],2.2 µM
same,GI50,[10],1.37 µM
same,GI50,[11]; [32],2.09 µM
same,CC50,[11]; Homo sapiens,15.1 µM
same,Log10 TGI (concentration in mol/L causing total growth inhibition (0% growth)),[11],−5.29 mol/L
same,GI50,[12],0.55 µM
same,GI50,[13],1.07 µM
same,GI50,[14],1.48 µM
same,GI50,[15],1.86 µM
same,GI50,[16],2.15 µM
same,GI50,[17],1.82 µM
same,GI50,[18],2.69 µM
same,GI50,[19],2.13 µM
same,GI50,[20],1.74 µM
same,GI50,[21],0.27 µM
same,GI50,[22],0.24 µM
same,GI50,[23],2.57 µM
same,GI50,[24],1.69 µM
same,GI50,[25]; [32],1.41 µM
same,LC50,[25]; Homo sapiens,6.17 µM
same,Log10 TGI (concentration in mol/L causing total growth inhibition (0% growth)),[25],−5.53 mol/L
same,GI50,[26]; [33],0.18 to 29.2 µM
same,GI50,[26]; [34],1.35 µM
same,cytotoxicity,[26],significant cytotoxicity
same,Log10 TGI mean graph midpoint (MG_MID),[26]; against human tumor cell lines,−5.47
same,LC50,[26]; against human tumor cell lines,10.5 µM
same,GI50,[27],1.54 µM
same,GI50,[28],0.75 µM
"COc1ccc(C(=O)/C=C/c2cc(-c3ccc4c(c3)OCO4)n[nH]2)cc1OC [8f, (E)-3-(3-(benzo[d][1,3]dioxol-5-yl)-1H-pyrazol-5-yl)-1-(3,4-dimethoxyphenyl)prop-2-en-1-one]",GI50,[1],3.36 µM
same,GI50,[2],2.8 µM
same,GI50,[3],1.81 µM
same,GI50,[4],2.08 µM
same,GI50,[5],7.06 µM
same,GI50,[6],2.81 µM
same,CC50,[7]; Homo sapiens,100 µM
same,Log10 GI50 (concentration in mol/L causing 50% growth inhibition),[7],−5.69 mol/L
same,Log10 TGI (concentration in mol/L causing total growth inhibition (0% growth)),[7],−5.03 mol/L
same,GI50,[8],2.4 µM
same,GI50,[9],1.9 µM
same,GI50,[10],2.05 µM
same,GI50,[29],2.51 µM
same,CC50,[11]; Homo sapiens,52.5 µM
same,Log10 GI50 (concentration in mol/L causing 50% growth inhibition),[11],−5.58 mol/L
same,Log10 TGI (concentration in mol/L causing total growth inhibition (0% growth)),[11],−4.87 mol/L
same,GI50,[12],1.8 µM
same,GI50,[30],2.16 µM
same,GI50,[13],2.86 µM
same,GI50,[14],1.55 µM
same,GI50,[15],2.7 µM
same,GI50,[16],4.12 µM
same,GI50,[17],2.53 µM
same,GI50,[18],2.11 µM
same,GI50,[19],4.99 µM
same,GI50,[20],4.1 µM
same,GI50,[21],1.27 µM
same,GI50,[22],1.03 µM
same,GI50,[23],2.6 µM
same,GI50,[31],1.58 µM
same,GI50,[24],3.4 µM
same,LC50,[25]; Homo sapiens,155 µM
same,Log10 GI50 (concentration in mol/L causing 50% growth inhibition),[25],−5.65 mol/L
same,Log10 TGI (concentration in mol/L causing total growth inhibition (0% growth)),[25],−5.14 mol/L
same,GI50,[26]; [33],0.18 to 29.2 µM
same,GI50,[26]; [34],2.75 µM
same,cytotoxicity,[26],significant cytotoxicity
same,Log10 TGI mean graph midpoint (MG_MID),[26]; against human tumor cell lines,−4.98
same,LC50,[26]; against human tumor cell lines,43.7 µM
same,GI50,[27],3.25 µM
same,GI50,[28],1.8 µM

# Source: patent US9604933B2, “Pyrazolochalcones as potential anticancer agents” (COUNCIL OF SCIENTIFIC AND INDUSTRIAL RESEARCH, priority 2013, dated 2017)
